Results taken from ChEMBL document CHEMBL1150637, “African elephant sesquiterpenes. II. Identification and synthesis of new derivatives of 2,3-dihydrofarnesol” (J Nat Prod, 2002).
Active and inactive are the calls of the source. The calls are words filed in the database; no cut-off is given here.

Test system: Mycobacterium tuberculosis
Experiment: Antimycobacterial activity against Mycobacterium tuberculosis by radiorespirometric bioassay
Type: functional, organism-based

CC(C)=CCC/C(C)=C/CC/C(C)=C/CO
Activity: Active
